From ChEMBL document CHEMBL5442219

Tests used:
Conditions in all cases: Compound concentration 10 µM
[1] = molecular target: T1, Alpha-1D adrenergic receptor (Homo sapiens) (UniProt P25100)
T1 sequence (whole entry): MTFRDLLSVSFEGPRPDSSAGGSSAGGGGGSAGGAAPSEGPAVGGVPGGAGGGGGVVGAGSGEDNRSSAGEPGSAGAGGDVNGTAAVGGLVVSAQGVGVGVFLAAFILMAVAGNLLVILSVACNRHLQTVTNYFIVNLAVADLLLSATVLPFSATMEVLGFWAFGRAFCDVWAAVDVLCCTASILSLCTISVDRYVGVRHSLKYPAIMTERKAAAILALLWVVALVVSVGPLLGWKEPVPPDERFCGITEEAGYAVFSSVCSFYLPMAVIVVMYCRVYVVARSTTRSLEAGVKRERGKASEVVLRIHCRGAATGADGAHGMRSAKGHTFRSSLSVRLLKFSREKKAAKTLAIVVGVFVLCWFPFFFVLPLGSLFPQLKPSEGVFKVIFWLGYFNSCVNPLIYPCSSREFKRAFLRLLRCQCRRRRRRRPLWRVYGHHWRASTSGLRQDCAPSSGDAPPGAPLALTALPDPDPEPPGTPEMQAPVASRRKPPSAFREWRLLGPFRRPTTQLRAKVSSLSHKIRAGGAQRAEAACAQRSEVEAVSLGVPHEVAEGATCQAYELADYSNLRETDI
Description: PDSP Primary Binding target: ADRA1D - Compounds are tested at 10 uM concentration, plate are incubated at room temperature in the dark for 90 minutes. Reaction are stopped by vacuum filtration onto 0.3% polyethyleneimine soaked filter mats using Filtermate harvester. Scintilation cocktail is then melted onto microwave-dried filters on a hot plate and the radio activity is counted in Microbia counter.

[2] = molecular target: T2, Muscarinic acetylcholine receptor M2 (Homo sapiens) (UniProt P08172)
T2 sequence (whole entry): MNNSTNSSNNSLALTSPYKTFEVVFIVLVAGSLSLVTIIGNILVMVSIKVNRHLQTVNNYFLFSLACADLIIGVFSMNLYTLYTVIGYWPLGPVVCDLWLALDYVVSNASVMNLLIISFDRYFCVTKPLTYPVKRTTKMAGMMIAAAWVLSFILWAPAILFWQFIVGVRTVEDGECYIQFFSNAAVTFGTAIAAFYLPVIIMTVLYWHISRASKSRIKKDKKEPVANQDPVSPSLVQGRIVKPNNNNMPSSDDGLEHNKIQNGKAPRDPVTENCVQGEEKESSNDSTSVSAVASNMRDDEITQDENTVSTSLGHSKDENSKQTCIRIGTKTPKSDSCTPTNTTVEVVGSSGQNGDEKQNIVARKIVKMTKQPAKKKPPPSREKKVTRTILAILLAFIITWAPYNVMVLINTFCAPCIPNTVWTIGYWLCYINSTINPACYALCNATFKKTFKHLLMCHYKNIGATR
Description: PDSP Primary Binding target: CHRM2 - Compounds are tested at 10 uM concentration, plate are incubated at room temperature in the dark for 90 minutes. Reaction are stopped by vacuum filtration onto 0.3% polyethyleneimine soaked filter mats using Filtermate harvester. Scintilation cocktail is then melted onto microwave-dried filters on a hot plate and the radio activity is counted in Microbia counter.

[3] = molecular target: T3, Muscarinic acetylcholine receptor M5 (Homo sapiens) (UniProt P08912)
T3 sequence (whole entry): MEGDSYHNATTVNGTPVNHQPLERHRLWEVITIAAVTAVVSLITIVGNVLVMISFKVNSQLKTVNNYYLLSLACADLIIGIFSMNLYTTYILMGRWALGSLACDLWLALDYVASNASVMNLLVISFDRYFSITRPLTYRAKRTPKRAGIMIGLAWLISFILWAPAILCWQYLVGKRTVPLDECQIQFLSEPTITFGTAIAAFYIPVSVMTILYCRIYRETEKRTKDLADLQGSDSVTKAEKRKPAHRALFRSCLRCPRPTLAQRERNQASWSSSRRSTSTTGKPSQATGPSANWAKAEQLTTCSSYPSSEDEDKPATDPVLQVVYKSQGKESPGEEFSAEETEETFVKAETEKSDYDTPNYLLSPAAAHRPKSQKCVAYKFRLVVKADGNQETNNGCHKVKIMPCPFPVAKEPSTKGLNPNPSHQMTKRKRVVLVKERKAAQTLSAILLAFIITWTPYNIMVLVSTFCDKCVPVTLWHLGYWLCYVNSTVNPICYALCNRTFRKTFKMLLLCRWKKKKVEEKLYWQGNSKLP
Description: PDSP Primary Binding target: CHRM5 - Compounds are tested at 10 uM concentration, plate are incubated at room temperature in the dark for 90 minutes. Reaction are stopped by vacuum filtration onto 0.3% polyethyleneimine soaked filter mats using Filtermate harvester. Scintilation cocktail is then melted onto microwave-dried filters on a hot plate and the radio activity is counted in Microbia counter.

[4] = molecular target: T4, D(4) dopamine receptor (Homo sapiens) (UniProt P21917)
T4 sequence (whole entry): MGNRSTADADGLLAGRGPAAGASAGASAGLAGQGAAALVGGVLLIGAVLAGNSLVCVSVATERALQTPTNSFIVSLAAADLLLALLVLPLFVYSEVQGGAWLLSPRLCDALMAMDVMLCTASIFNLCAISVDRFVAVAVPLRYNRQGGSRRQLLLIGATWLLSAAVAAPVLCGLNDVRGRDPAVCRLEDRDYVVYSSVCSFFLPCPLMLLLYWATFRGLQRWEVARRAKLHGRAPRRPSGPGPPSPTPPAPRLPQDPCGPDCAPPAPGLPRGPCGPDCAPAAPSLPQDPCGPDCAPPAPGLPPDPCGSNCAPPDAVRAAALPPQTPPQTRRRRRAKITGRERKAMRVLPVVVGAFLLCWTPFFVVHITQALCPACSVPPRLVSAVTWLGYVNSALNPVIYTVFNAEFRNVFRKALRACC
Description: PDSP Primary Binding target: DRD4 - Compounds are tested at 10 uM concentration, plate are incubated at room temperature in the dark for 90 minutes. Reaction are stopped by vacuum filtration onto 0.3% polyethyleneimine soaked filter mats using Filtermate harvester. Scintilation cocktail is then melted onto microwave-dried filters on a hot plate and the radio activity is counted in Microbia counter.

[5] = molecular target: 5-hydroxytryptamine receptor 2B (Homo sapiens) (UniProt P41595)
Sequence of 5-hydroxytryptamine receptor 2B (Homo sapiens) (P41595 whole entry): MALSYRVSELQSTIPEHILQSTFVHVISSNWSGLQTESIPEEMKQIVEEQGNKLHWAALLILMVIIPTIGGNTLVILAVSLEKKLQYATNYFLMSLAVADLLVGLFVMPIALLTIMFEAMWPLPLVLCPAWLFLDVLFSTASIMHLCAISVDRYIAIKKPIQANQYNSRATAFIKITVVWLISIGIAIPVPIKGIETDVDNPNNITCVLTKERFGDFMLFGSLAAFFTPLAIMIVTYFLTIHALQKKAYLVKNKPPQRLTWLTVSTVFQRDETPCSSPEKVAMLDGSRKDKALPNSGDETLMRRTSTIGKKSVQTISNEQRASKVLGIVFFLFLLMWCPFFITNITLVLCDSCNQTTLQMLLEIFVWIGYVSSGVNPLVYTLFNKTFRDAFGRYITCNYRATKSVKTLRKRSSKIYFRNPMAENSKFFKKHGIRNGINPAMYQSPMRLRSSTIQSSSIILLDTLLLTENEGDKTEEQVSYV
Description: PDSP Primary Binding target: HTR2B - Compounds are tested at 10 uM concentration, plate are incubated at room temperature in the dark for 90 minutes. Reaction are stopped by vacuum filtration onto 0.3% polyethyleneimine soaked filter mats using Filtermate harvester. Scintilation cocktail is then melted onto microwave-dried filters on a hot plate and the radio activity is counted in Microbia counter.

[6] = molecular target: Delta-type opioid receptor (Homo sapiens) (UniProt P41143)
Sequence of Delta-type opioid receptor (Homo sapiens) (P41143 whole entry): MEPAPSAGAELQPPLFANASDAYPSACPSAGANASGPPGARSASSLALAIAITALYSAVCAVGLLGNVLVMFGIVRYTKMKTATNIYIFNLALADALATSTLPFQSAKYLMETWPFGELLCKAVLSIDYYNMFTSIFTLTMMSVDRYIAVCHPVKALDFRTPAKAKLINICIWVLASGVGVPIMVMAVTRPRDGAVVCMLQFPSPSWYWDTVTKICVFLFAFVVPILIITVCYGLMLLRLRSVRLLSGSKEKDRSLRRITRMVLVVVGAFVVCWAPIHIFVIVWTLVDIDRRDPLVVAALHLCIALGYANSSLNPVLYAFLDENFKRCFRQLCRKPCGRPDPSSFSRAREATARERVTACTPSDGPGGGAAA
Description: PDSP Primary Binding target: OPRD1 - Compounds are tested at 10 uM concentration, plate are incubated at room temperature in the dark for 90 minutes. Reaction are stopped by vacuum filtration onto 0.3% polyethyleneimine soaked filter mats using Filtermate harvester. Scintilation cocktail is then melted onto microwave-dried filters on a hot plate and the radio activity is counted in Microbia counter.

[7] = molecular target: Sigma non-opioid intracellular receptor 1 (Homo sapiens) (UniProt Q99720)
Sequence of Sigma non-opioid intracellular receptor 1 (Homo sapiens) (Q99720 whole entry): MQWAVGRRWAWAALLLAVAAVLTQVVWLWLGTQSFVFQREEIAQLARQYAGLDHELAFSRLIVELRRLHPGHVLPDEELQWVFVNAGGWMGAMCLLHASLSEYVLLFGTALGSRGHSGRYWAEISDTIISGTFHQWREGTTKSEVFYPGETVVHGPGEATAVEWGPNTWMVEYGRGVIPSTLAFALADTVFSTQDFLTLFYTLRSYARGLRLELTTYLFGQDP
Description: PDSP Primary Binding target: SIGMAR1 - Compounds are tested at 10 uM concentration, plate are incubated at room temperature in the dark for 90 minutes. Reaction are stopped by vacuum filtration onto 0.3% polyethyleneimine soaked filter mats using Filtermate harvester. Scintilation cocktail is then melted onto microwave-dried filters on a hot plate and the radio activity is counted in Microbia counter.

[8] = molecular target: Sigma intracellular receptor 2 (Homo sapiens) (UniProt Q5BJF2)
Sequence of Sigma intracellular receptor 2 (Homo sapiens) (Q5BJF2 whole entry): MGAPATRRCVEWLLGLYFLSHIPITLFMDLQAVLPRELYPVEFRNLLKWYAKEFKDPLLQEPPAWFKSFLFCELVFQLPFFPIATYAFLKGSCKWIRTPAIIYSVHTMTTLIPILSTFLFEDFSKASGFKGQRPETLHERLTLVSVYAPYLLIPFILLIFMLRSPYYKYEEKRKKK
Description: PDSP Primary Binding target: TMEM97 - Compounds are tested at 10 uM concentration, plate are incubated at room temperature in the dark for 90 minutes. Reaction are stopped by vacuum filtration onto 0.3% polyethyleneimine soaked filter mats using Filtermate harvester. Scintilation cocktail is then melted onto microwave-dried filters on a hot plate and the radio activity is counted in Microbia counter.

[9] = molecular target: T5, Muscarinic acetylcholine receptor M1 (Homo sapiens) (UniProt P11229)
T5 sequence (whole entry): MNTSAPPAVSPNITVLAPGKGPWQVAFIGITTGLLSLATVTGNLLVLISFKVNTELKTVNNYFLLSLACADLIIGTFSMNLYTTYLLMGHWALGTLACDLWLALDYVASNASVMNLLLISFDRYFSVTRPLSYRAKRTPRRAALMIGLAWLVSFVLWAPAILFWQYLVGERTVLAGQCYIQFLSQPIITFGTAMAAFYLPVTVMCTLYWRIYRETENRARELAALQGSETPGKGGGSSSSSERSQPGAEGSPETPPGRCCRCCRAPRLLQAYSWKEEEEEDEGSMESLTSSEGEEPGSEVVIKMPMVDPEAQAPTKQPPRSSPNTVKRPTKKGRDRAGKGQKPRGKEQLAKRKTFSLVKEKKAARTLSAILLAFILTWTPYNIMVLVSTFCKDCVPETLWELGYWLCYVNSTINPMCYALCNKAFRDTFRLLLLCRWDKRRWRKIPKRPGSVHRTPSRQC
Description: PDSP Primary Binding target: CHRM1 - Compounds are tested at 10 uM concentration, plate are incubated at room temperature in the dark for 90 minutes. Reaction are stopped by vacuum filtration onto 0.3% polyethyleneimine soaked filter mats using Filtermate harvester. Scintilation cocktail is then melted onto microwave-dried filters on a hot plate and the radio activity is counted in Microbia counter.

SMILES | inhibition [1] [%] | inhibition [2] [%] | inhibition [3] [%] | inhibition [4] [%] | inhibition [5] [%] | inhibition [6] [%] | inhibition [7] [%] | inhibition [8] [%] | inhibition [9] [%]
COc1cc2nc(N3CCN(C(=O)c4ccco4)CC3)nc(N)c2cc1OC | 0 | 15.9 | 3.19 | 27.4 | 54.3 | 4.29 | 68 | 27.6 | 
COc1cccc(-c2c(C)n(Cc3c(F)cccc3C(F)(F)F)c(=O)n(C[C@H](NCCCC(=O)O)c3ccccc3)c2=O)c1F | -7.43 | 3.22 |  | 25.8 | -6.96 | 7.27 | 2.12 |  | 26.2
CC1=C2C[C@H]3[C@@H](CC=C4C[C@@H](O)CC[C@@]43C)[C@@H]2CC[C@]12O[C@@H]1C[C@H](C)CN[C@H]1[C@H]2C | -8.81 | -1.88 |  |  |  | -0.87 | 10.2 | 91.8 | 22.8
N#Cc1ccc(NC(=O)Nc2ccccc2Br)c2nn[nH]c12 | -7.75 | 29.7 | 6.48 | 13.3 | 33.9 | 16.4 | 9.64 |  | 
CC(C)NCC(O)COc1cccc2[nH]ccc12 (stereo not given) | 13.6 | -9.11 | 10.5 | 69.4 | 39.4 | -2.56 | 38.7 | 97.5 | 
CCCCCCCCCCCCC/C=C/[C@@H](O)[C@@H](N)COP(=O)(O)O | 9.46 | -7.68 | 6.31 |  | 11.5 | 20.4 | 63.8 | 79.4 | 
N#Cc1c(O)nc(SCc2cccc(F)c2F)nc1C1CC1 |  | 28.1 |  | -4.74 | 9.1 | 7.91 | 18.2 | 8.9 | -6.12
Cc1cc([C@@H](C)Nc2cccc(-c3cc(C)c(C(=O)N[C@@H](C)C(=O)O)c(C)c3)c2)ccc1Cl |  | 2.88 |  | 31.4 | 54.5 | 35.9 | 20 |  | 21.2
CCCNS(=O)(=O)Nc1ncnc(OCCOc2ncc(Br)cn2)c1-c1ccc(Br)cc1 | 0.01 | -6.56 | 11.6 |  |  | 23.6 | 15.8 | 30 | 
N[C@H](C(=O)O)c1ccc(C(=O)O)c(C(=O)O)c1 | 10.3 | 45 | 14.1 | -8.24 |  | 13.1 | 6.26 |  | 
Cc1nc(-c2ccc(C(F)(F)F)cc2)sc1COc1ccc([C@H](CC(=O)O)c2ccon2)cc1 | -8.39 | 25.2 |  |  | 0.53 | 23 | 37.7 | 26.5 | 
O=C(O)C1CN(Cc2ccc(-c3nc4cc(Cc5ccccc5F)ccc4s3)c(F)c2)C1 |  | -8.59 |  | -6.1 | -9.46 | -3.98 | 5.12 | 19.1 | 0.63
Cc1cc(C)cc(-c2cnc3cc(Cl)c(-c4cccc(O)c4)cc3c2OCCCN)c1 | 53.7 |  | 3.7 | 32.1 | 88.6 | 50.2 | 74.9 | 94.9 | 24.3
OC[C@H]1O[C@@H](n2cnc3c(NC4CCCC4)ncnc32)[C@H](O)[C@@H]1O | -2.06 | 7.74 |  | 34 | 38.5 | -3.21 | 51.9 | 14.2 | 15.4
CN[C@@H]1CCc2[nH]c3ccc(C(N)=O)cc3c2C1 | 19.6 | 10.5 | -1.58 | 64.7 | 6.12 | 2.74 | 42.1 | 54.9 | 
CN1CCC(=C2c3ccccc3CC(=O)c3sccc32)CC1 | 16.3 | 75.2 | 93.2 | 25.6 | 98.4 | 14.2 | -1.6 | 91.3 | 
NCCc1c[nH]c2ccc(C(N)=O)cc12 | 14.8 | 7.09 | 8.53 | 8.02 | 78.8 | -3.42 | 20.2 | 63.4 | 
CCOC(=O)c1cc(C#N)c(N2CCC(C(=O)NS(=O)(=O)Cc3ccccc3)CC2)nc1C | 29.5 | 68.1 | 28.6 | 7.97 |  | -8.38 | 44.3 | 4.45 | 
CC1(C)SSC(C)(C)[C@@H](NC(=O)[C@@H](N)Cc2ccc(O)cc2)C(=O)NCC(=O)N[C@@H](Cc2ccccc2)C(=O)N[C@H]1C(=O)O |  | -9.99 |  | 49 | 24.7 |  | 21.7 | 22.6 | -6.96
CN1C[C@H](C(=O)N[C@]2(C)O[C@@]3(O)[C@@H]4CCCN4C(=O)[C@H](Cc4ccccc4)N3C2=O)C[C@@H]2c3cccc4[nH]cc(c34)C[C@H]21 | 102 | 4.48 | 7.31 | 100 | 82.8 | 14.2 | 72.9 | 93.6 | 
COc1ccccc1N1CCN(CCCCNC(=O)c2ccc3ccccc3c2)CC1 | 94 | 7.22 | 23.2 | 95.1 | 97 | -2.88 | 90.4 | 96.4 | 
